Results on 11 compounds are retold here after ChEMBL document CHEMBL1201862, “PubChem BioAssay data set” (2004).

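How tested: cells in 96-well plates exposed to compound for 48 hours at five concentrations. Here, GI50 denotes the concentration required for 50% inhibition of growth.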 The source made the active and inactive calls. No stated cut-off is given here; in the data, active = GI50 up to about 1.1 µM and inactive = higher.

Some test systems named below: MCF7; OVCAR-3; NCI-H23; OVCAR-8; K562; SF-295; M14; SK-OV-3; HT-29; SNB-75; UO-31; KM12; RXF 393; TK-10; OVCAR-4; NCI-H226; SF-539; OVCAR-5; EKVX; SK-MEL-28.
What all share (assay): inhibition of tumour cell growth, NCI panel, 48 h

Take `CN(O)C(=O)CCCC(=O)NCC(C)(C)CNC(=O)CCCC(=O)N(C)O`: the GI50 in the assay with MCF7, with OVCAR-3, with NCI-H23, in the assay with OVCAR-8, with K562 and in the assay with SF-295 was > 100 µM (inactive) each time. Besides, the GI50 in the assay with M14, with SK-OV-3, in the assay with HT-29, in the assay with SNB-75, with UO-31 and with KM12 was > 100 µM (inactive) throughout. The GI50 in the assay with RXF 393, in the assay on TK-10, with OVCAR-4, in the assay with NCI-H226, with SF-539 and with OVCAR-5 was > 100 µM (inactive) throughout. Also, in the assay on EKVX, the GI50 is > 100 µM (inactive).

Consider `O=C(CSCC(=O)N/N=C/c1cc(I)cc(I)c1O)N/N=C/c1cc(I)cc(I)c1O`, for which the GI50 with MCF7 is 15.1 µM (inactive); in the assay on OVCAR-3, 27 µM (inactive); in the assay with NCI-H23, 11.6 µM (inactive); with OVCAR-8, 6.34 µM (inactive); in the assay with K562, 11.1 µM (inactive); in the assay with SF-295 it was 13.6 µM (inactive). Also, the GI50 was 17.8 µM (inactive) in the assay on M14; 10.8 µM (inactive) in the assay on SK-OV-3; 32.9 µM (inactive) with HT-29; 5.65 µM (inactive) with SNB-75; 13.2 µM (inactive) in the assay on UO-31; 25.8 µM (inactive) in the assay on KM12. Moreover, the GI50 in the assay on RXF 393 is 10.6 µM (inactive); in the assay on TK-10 it was 7.4 µM (inactive); in the assay with OVCAR-4, 47 µM (inactive); in the assay with SK-MEL-28, 18.9 µM (inactive); with NCI-H226, 7.91 µM (inactive); with SF-539, 7.57 µM (inactive). Further, the figures for the GI50 with OVCAR-5 and in the assay with EKVX were 39.5 µM (inactive) and 16 µM (inactive), respectively.

Regarding `COc1ccc(C2CC(c3sc(Nc4ccc(C)cc4)nc3C)=NN2)cc1` (centres undefined), the GI50 was 14 µM (inactive) in the assay on MCF7; 15.8 µM (inactive) in the assay on OVCAR-3; 15.5 µM (inactive) with NCI-H23; 15.5 µM (inactive) with OVCAR-8; 12.8 µM (inactive) in the assay with K562; 15 µM (inactive) in the assay on SF-295. Besides, the GI50 with SK-OV-3 was 24.4 µM (inactive); in the assay with HT-29, 11.8 µM (inactive); with SNB-75, 14.8 µM (inactive); in the assay on UO-31, 14.2 µM (inactive); in the assay on KM12, 15.2 µM (inactive); with RXF 393, 13.2 µM (inactive). Further, the GI50 in the assay with OVCAR-4 is 13.3 µM (inactive); in the assay with SK-MEL-28, 16.8 µM (inactive); in the assay with NCI-H226, 16.6 µM (inactive); in the assay on SF-539, 15.4 µM (inactive); in the assay on OVCAR-5, 22.4 µM (inactive); in the assay on EKVX it was 20.5 µM (inactive).

For `O=[N+]([O-])C(/C=C(\Cl)[N+](=O)[O-])=C1Nc2ccccc2N1`, the GI50 was 39.6 µM (inactive) with MCF7; 90.2 µM (inactive) in the assay on OVCAR-3; > 100 µM (inactive) with NCI-H23; 56.6 µM (inactive) in the assay with OVCAR-8; 79.6 µM (inactive) with K562; 35.4 µM (inactive) with SF-295. Besides, the GI50 with M14 is 60.8 µM (inactive); with SK-OV-3, 42.4 µM (inactive); with HT-29 it was 39.6 µM (inactive); in the assay with SNB-75 it was 17.3 µM (inactive); in the assay on UO-31 it was 42.6 µM (inactive); in the assay on KM12, > 100 µM (inactive). Moreover, the GI50 in the assay with RXF 393 is 38.1 µM (inactive); in the assay with TK-10, > 100 µM (inactive); in the assay on OVCAR-4 it was > 100 µM (inactive); in the assay on SK-MEL-28, 42.3 µM (inactive); in the assay on NCI-H226, 43.3 µM (inactive); in the assay on SF-539, 35.5 µM (inactive). Also, in the assay with EKVX, the GI50 was 48.5 µM (inactive).

`O=NN(CCCl)C(=O)N[C@H]1CC[C@H](C(=O)O)CC1`: the GI50 with MCF7 was > 100 µM (inactive); with OVCAR-3, > 100 µM (inactive); in the assay with NCI-H23, > 100 µM (inactive); with OVCAR-8, > 100 µM (inactive); in the assay with K562, > 100 µM (inactive); with SF-295, 34.8 µM (inactive). The GI50 in the assay on SK-OV-3 was > 100 µM (inactive); in the assay with HT-29 it was > 100 µM (inactive); with SNB-75, > 80.2 µM (inactive); in the assay with UO-31, > 100 µM (inactive); in the assay on KM12, > 100 µM (inactive); with RXF 393, > 100 µM (inactive). Also, the GI50 in the assay with OVCAR-4 was > 100 µM (inactive); in the assay with SK-MEL-28 it was > 100 µM (inactive); in the assay with NCI-H226, > 100 µM (inactive); with SF-539, 36.1 µM (inactive); with OVCAR-5 it was > 100 µM (inactive); with EKVX it was > 100 µM (inactive).

With `C=C(C)C(=O)O[C@H]1C[C@@]23O[C@@H]2CCC(=C[C@H]2OC(=O)C(=C)[C@H]12)COC3O` (some centres undefined), the GI50 is 30.6 µM (inactive) in the assay with MCF7; 49.5 µM (inactive) in the assay on OVCAR-3; > 100 µM (inactive) in the assay with NCI-H23; 39.6 µM (inactive) in the assay with OVCAR-8; 20.2 µM (inactive) with K562; > 100 µM (inactive) in the assay on SF-295. The GI50 in the assay with M14 is 57.5 µM (inactive); with SK-OV-3 it was > 100 µM (inactive); in the assay with HT-29, 57.5 µM (inactive); in the assay with SNB-75, > 100 µM (inactive); in the assay on KM12, > 100 µM (inactive); in the assay with RXF 393, 25.1 µM (inactive). Also, the GI50 in the assay with TK-10 is > 100 µM (inactive); in the assay on OVCAR-4 it was > 100 µM (inactive); with NCI-H226, > 100 µM (inactive); in the assay with SF-539 it was > 100 µM (inactive); in the assay with OVCAR-5, > 100 µM (inactive); in the assay with EKVX, 49.2 µM (inactive).

With `C=C1CC(OC)(C(O)C(=O)N[C@H]2OCO[C@H]3C2O[C@H](C[C@@H](COC)OC)C(C)(C)C3OC)O[C@H](C)[C@@H]1C` (some centres undefined), the GI50 in the assay with MCF7, in the assay on OVCAR-3, with NCI-H23, with OVCAR-8, with K562 and in the assay on SF-295 was < 0.00482 µM (active) each time. Moreover, the GI50 with HT-29, in the assay on SNB-75, with UO-31, in the assay with KM12, in the assay with RXF 393 and in the assay on OVCAR-4 was < 0.00482 µM (active) in each case. In addition, the GI50 with SK-MEL-28, in the assay with NCI-H226, with SF-539, with OVCAR-5 and with EKVX was < 0.00482 µM (active) each time.

Regarding `C=C1C(=O)C[C@@]23CCC[C@@]12CC(OCOC)C3` (some centres undefined), the GI50 was 1.83 µM (inactive) in the assay on MCF7; 2.72 µM (inactive) with OVCAR-3; 3.43 µM (inactive) in the assay on NCI-H23; 3.09 µM (inactive) in the assay with OVCAR-8; 3.12 µM (inactive) with K562; 5.3 µM (inactive) in the assay with SF-295. Moreover, the GI50 in the assay on SK-OV-3 was 6.67 µM (inactive); in the assay with HT-29 it was 1.99 µM (inactive); in the assay on SNB-75 it was 2.1 µM (inactive); with UO-31 it was 5.46 µM (inactive); in the assay on KM12, 3.08 µM (inactive); with RXF 393, 0.637 µM (active). The GI50 with OVCAR-4 is 2.19 µM (inactive); in the assay with SK-MEL-28, 2.69 µM (inactive); with NCI-H226, 2 µM (inactive); in the assay on SF-539, 3.24 µM (inactive); in the assay on OVCAR-5 it was 3.61 µM (inactive); with EKVX, 6.46 µM (inactive).

As for `CN(C)CCNC(=O)c1ccc(NCCCN(C)CCCNc2ccc(C(=O)NCCN(C)C)c3nc4ccccc4c(O)c23)c2c(O)c3ccccc3nc12`, the GI50 was < 0.01 µM (active) with MCF7; 0.0228 µM (active) with OVCAR-3; < 0.0122 µM (active) in the assay with NCI-H23; < 0.01 µM (active) in the assay on OVCAR-8; 0.0394 µM (active) in the assay on K562; 0.0442 µM (active) in the assay on SF-295. Besides, the GI50 in the assay with M14 is 0.187 µM (active); with SK-OV-3, < 0.0146 µM (active); in the assay with HT-29, < 0.01 µM (active); with SNB-75 it was < 0.01 µM (active); with UO-31, 0.326 µM (active); with KM12, < 0.0116 µM (active). The GI50 in the assay with RXF 393 is 0.146 µM (active); in the assay on TK-10 it was 0.16 µM (active); with OVCAR-4, < 0.0164 µM (active); in the assay on SK-MEL-28, 0.161 µM (active); in the assay on NCI-H226, < 0.0317 µM (active); in the assay with SF-539 it was 0.274 µM (active). In addition, the GI50 in the assay with OVCAR-5 is 0.0422 µM (active); in the assay with EKVX it was 0.115 µM (active).

With `CC(=O)O[C@@H]1C2=C(C3=C([O-])C4=CC=CC(=O)C4C(=O)C3=C2[N+]#N)[C@H](OC(C)=O)[C@@H](OC(C)=O)[C@]1(C)O` (some centres undefined), the GI50 in the assay on MCF7 was 0.392 µM (active); with OVCAR-3 it was 0.502 µM (active); in the assay on NCI-H23, 0.746 µM (active); with OVCAR-8 it was 0.184 µM (active); in the assay on K562, 0.151 µM (active); with SF-295, 0.385 µM (active). The GI50 in the assay with M14 is 0.177 µM (active); in the assay with SK-OV-3 it was 0.731 µM (active); in the assay on SNB-75 it was 0.186 µM (active); in the assay on UO-31 it was 0.561 µM (active); with KM12, 0.333 µM (active); with RXF 393, 0.565 µM (active). Also, the GI50 was 0.484 µM (active) in the assay with TK-10; 0.731 µM (active) in the assay on OVCAR-4; 0.743 µM (active) in the assay on SK-MEL-28; 0.537 µM (active) in the assay on NCI-H226; 0.508 µM (active) with SF-539; 0.353 µM (active) in the assay on OVCAR-5. Moreover, the GI50 in the assay on EKVX is 0.605 µM (active).

Turning to `NC(=O)c1ncn2c1NC(=O)CC2`, the GI50 with MCF7, in the assay on OVCAR-3, in the assay on NCI-H23, with OVCAR-8, in the assay on K562 and with SF-295 was > 100 µM (inactive) in each case. The GI50 in the assay on SK-OV-3, in the assay with HT-29, in the assay on SNB-75, in the assay on UO-31, in the assay on KM12 and in the assay on RXF 393 was > 100 µM (inactive) each time. The GI50 in the assay with OVCAR-4, in the assay on SK-MEL-28, in the assay with NCI-H226, in the assay on SF-539, in the assay on OVCAR-5 and in the assay with EKVX was > 100 µM (inactive) throughout.
